Measured values taken from patent US20210038569A1, “COMPOSITIONS AND METHODS FOR TREATING PIGMENTATION DISORDERS” (Timber Pharmaceuticals, Inc., priority 2018, published 2021).
Entries after “also recorded” stand apart in the source; their conditions may differ. Read-outs that look alike come from different tables or passages of the source.

Experiments:
[1] = tested on: normal human dermal fibroblasts (NHDFs) stimulated with TGF-β1; test: Apoptosis (Caspase-Glo 3/7) in TGF-β1 induced normal human dermal fibroblasts; format: cell-based; settings: for Apoptosis: 48 hours, 50 ng/mL TGF-β1; for Apoptosis, result in words: after treatment, compared with vehicle control and between compounds
Description: For these assays cells were grown for 48 hours in the presence of vehicle control, sitaxentan, and bosentan. The appropriate assay reagents and measuring techniques were used as indicated herein. Normal human dermal fibroblast cells (LLCT FC0024 lot 03869_ fibroblast) were seeded to confluence in 96 well plates in 10% fetal bovine serum (FBS) Dulbecco's modified eagle medium (DMEM). The cells were washed to remove the FBS, and serum free media was added overnight (O/N). The cells were then stimulated with 50 ng/mL TGF-β1 and treated. For the apoptosis assay: 100 μl of Caspase-Glo® 3/7 Reagent (Promega, Cat #G6320), for the apoptosis assay, was added and briefly mixed. The plate was incubated for 30 minutes at room temperature prior to measurement of luminescence Data were analyzed using GraphPad Prism 7. Six to nine replicates were run for each sample.

[2] = tested on: primary normal human adult melanocytes; test: Melanin content in melanocytes; format: cell-based; settings: for Melanin Content (absorbance at 400 nm): 24 hours
Description: (§1) The effect of sitaxentan on human melanocytes was measured. For these assays cells were grown for 24 hours in the presence of vehicle control, sitaxentan, and bosentan. The appropriate assay reagents and measuring techniques were used as indicated herein. Melanocytes, from either Caucasian or African American donors, were grown to confluence in 6-well tissue culture plates using LLCT DermaLife Ma complete medium and treated with compounds for 24 hours. Treated cells were removed from the plate with 0.25% trypsin for 10 minutes and then centrifuged at 0.4 g for 5 minutes. The resulting cell pellet was resuspended in 50 μL of 1M NaOH/10% DMSO solution. The resultant suspension was vortexed for 30 seconds. The suspension was then baked in a drying oven at 80° C. for 1 hour. The suspension was vortexed again for 30 seconds and then transferred to a black half-area 96-well plate and read in a UV/VIS spectrophotometer at 400 nm. Data were analyzed using GraphPad Prism 7.

[3] = tested on: normal human dermal fibroblasts (NHDFs) stimulated with TGF-β1; test: Cell viability in TGF-β1 induced normal human dermal fibroblasts; format: cell-based; settings: for Cell Viability: 48 hours, 50 ng/mL TGF-β1
Description: For these assays cells were grown for 48 hours in the presence of vehicle control, sitaxentan, and bosentan. The appropriate assay reagents and measuring techniques were used as indicated herein. Normal human dermal fibroblast cells (LLCT FC0024 lot 03869_ fibroblast) were seeded to confluence in 96 well plates in 10% fetal bovine serum (FBS) Dulbecco's modified eagle medium (DMEM). The cells were washed to remove the FBS, and serum free media was added overnight (O/N). The cells were then stimulated with 50 ng/mL TGF-β1 and treated. For the cell viability assay: 20 μl of the Viability Reagent (Promega, Cat #G6320) containing both GF-AFC Substrate and bis-AAF-R110 Substrate, for measuring live cell viability, was added and briefly mixed. The plates for the different assays were then incubated for 30 minutes at 37° C. […] Data were analyzed using GraphPad Prism 7. Six to nine replicates were run for each sample.

[4] = tested on: normal human dermal fibroblasts (NHDFs) stimulated with TGF-β1; test: Cell cytotoxicity in TGF-β1 induced normal human dermal fibroblasts; format: cell-based; settings: for Cell Cytotoxicity: 48 hours, 50 ng/mL TGF-β1; for Cytotoxicity, result in words: compared with vehicle control and between compounds
Description: The effect of sitaxentan on cell viability, cell cytotoxicity, and apoptosis was measured in an assay using normal human dermal fibroblasts induced with TGF-β1 into a profibrotic phenotype. For these assays cells were grown for 48 hours in the presence of vehicle control, sitaxentan, and bosentan. The appropriate assay reagents and measuring techniques were used as indicated herein.
normal human dermal fibroblast cells (LLCT FC0024 lot 03869_ fibroblast) were seeded to confluence in 96 well plates in 10% fetal bovine serum (FBS) Dulbecco's modified eagle medium (DMEM).
The cells were washed to remove the FBS, and serum free media was added overnight (O/N).
The cells were then stimulated with 50 ng/mL TGF-β1 and treated.
For the cell cytotoxicity assay:
20 μl of the Cytotoxicity Reagent (Promega, Cat #G6320) containing both GF-AFC Substrate and bis-AAF-R110 Substrate, for measuring dead cells (cytotoxicity), was added and briefly mixed.
The plates for the different assays were then incubated for 30 minutes at 37° C.
Fluorescence was measured at: 400Ex/505Em (Viability) and 485Ex/520Em (Cytotoxicity)
Data were analyzed using GraphPad Prism 7.
Six to nine replicates were run for each sample.

[5] = tested on: primary normal human adult melanocytes; test: Melanin content in melanocytes; format: cell-based; settings: for Melanin Content (absorbance at 400 nm): 24 hours; remark: listed apart in the source
Description: as §1

[6] = target: T1, endothelin-A (ET-A) receptor (Homo sapiens, UniProt P25101); settings: cited from earlier work
T1 sequence (P25101 21-427): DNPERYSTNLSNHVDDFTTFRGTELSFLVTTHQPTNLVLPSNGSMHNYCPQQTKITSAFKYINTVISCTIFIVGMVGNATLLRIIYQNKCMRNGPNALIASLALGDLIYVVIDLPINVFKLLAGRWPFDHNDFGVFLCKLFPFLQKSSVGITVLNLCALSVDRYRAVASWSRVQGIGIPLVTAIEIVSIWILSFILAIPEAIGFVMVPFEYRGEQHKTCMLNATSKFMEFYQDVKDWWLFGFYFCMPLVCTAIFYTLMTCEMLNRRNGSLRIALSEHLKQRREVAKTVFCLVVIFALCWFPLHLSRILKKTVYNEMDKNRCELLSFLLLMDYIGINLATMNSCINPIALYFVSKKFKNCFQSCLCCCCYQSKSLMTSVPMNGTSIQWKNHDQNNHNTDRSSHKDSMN

[7] = in vivo; cited from earlier work
[8] = cited from earlier work

SMILES	Apoptosis ([1]; 1 μM) [RLUs]	Apoptosis ([1]; 3 μM) [RLUs]	Apoptosis ([1]; 10 μM) [RLUs]	Apoptosis ([1]; 30 μM) [RLUs]	Apoptosis ([1]; 100 μM) [RLUs]	Apoptosis, result in words [1]	Effect on melanin content, result in words [2]	Melanin Content (absorbance at 400 nm) ([2]; 30 μM)	Melanin Content (absorbance at 400 nm) ([2]; 100 μM)	Cell Viability ([3]; 1 μM) [RFUs]	Cell Viability ([3]; 3 μM) [RFUs]	Cell Viability ([3]; 10 μM) [RFUs]	Cell Viability ([3]; 30 μM) [RFUs]	Cell Viability ([3]; 100 μM) [RFUs]	Cell Cytotoxicity ([4]; 1 μM) [RFUs]	Cell Cytotoxicity ([4]; 3 μM) [RFUs]	Cell Cytotoxicity ([4]; 10 μM) [RFUs]	Cell Cytotoxicity ([4]; 30 μM) [RFUs]	Cell Cytotoxicity ([4]; 100 μM) [RFUs]	Cytotoxicity, result in words [4]	also measured
COc1ccccc1Oc1c(NS(=O)(=O)c2ccc(C(C)(C)C)cc2)nc(-c2ncccn2)nc1OCCO [bosentan]	39366.8	38639.8	38586.7	42825.2	43330.7	elevated	no effect on melanin content	0.511	0.497	5406.8	5548.5	5521.2	5537.0	5584.3	4256.9	3954.2	3764.0	4607.5	3929.0	neither bosentan nor sitaxentan was significantly more cytotoxic than the vehicle control; also recorded: significantly more cytotoxic than sitaxentan	Effect on melanin content, result in words [5]: no effect on melanin content; Melanin Content (absorbance at 400 nm) ([5]; 30 μM): 0.633; Melanin Content (absorbance at 400 nm) ([5]; 100 μM): 0.703
Cc1cc2c(cc1CC(=O)c1sccc1S(=O)(=O)Nc1onc(C)c1Cl)OCO2 [sitaxentan, N-(4-Chloro-3-methyl-5-isoxazolyl)-2-[(2-methyl-4,5-methylenedioxyphenyl)-acetyl]thiophene-3-sulfonamide]	37593.4	39162.8	39512.0	46053.5	51050.2	elevated; also recorded: significantly more potent effect than bosentan	superior to bosentan in reducing the melanin content; also recorded: significantly more effective than a vehicle control at reducing melanin content; also recorded: significantly decreased melanin content	0.471	0.46	5678.3	5639.0	5600.5	5250.8	5171.0	4643.9	5058.3	4741.7	3837.5	2911.3	neither bosentan nor sitaxentan was significantly more cytotoxic than the vehicle control	Selectivity for ET-A compared to ET-B (factor) [6]: 6000; Toxicity (cell viability), result in words ([3]; concentrations up to 100 μM): no significant toxicity was observed; Cytotoxicity, result in words ([4]; listed as sitaxsentan): significantly less cytotoxic to human skin cells than bosentan; Effect on melanin content, result in words [5]: superior to bosentan in reducing the melanin content; also recorded: significantly more effective than a vehicle control at reducing melanin content; also recorded: significantly decreased melanin content; Melanin Content (absorbance at 400 nm) ([5]; 30 μM): 0.579; Melanin Content (absorbance at 400 nm) ([5]; 100 μM): 0.544; Metabolism [7]: hepatic (CYP2C9- and CYP3A4-mediated); Protein binding [8]: > 99%
